Laboratory results as given in patent publication US6737383B1, “Herbicidal oxadiazolidines” (priority 1999, dated 2004).

Tests used:
corn = assay: Test B pre/postemergence corn; format: in vivo, Zea mays
How it was run: (§1)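 Response is a visual 0-to-10 score relative to untreated plants, where 0 means no effect and 10 means complete control, taken twelve to sixteen days after application. Treatments went onto soil at planting and onto foliage of 1- to 4-leaf plants, using a surfactant-containing non-phytotoxic solvent.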

rape = assay: Test B pre/postemergence rape; format: in vivo, Brassica napus
How it was run: as §1

sugar beet = assay: Test B pre/postemergence sugar beet; format: in vivo, Beta vulgaris
How it was run: as §1

duck salad = assay: Test B flood test duck salad; format: in vivo, Heteranthera limosa
How it was run: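 Each value is a visual injury score relative to controls, with 10 meaning complete control and 0 no effect. Evaluation took place twelve to sixteen days after the 2-leaf-stage plants were treated and kept in the greenhouse.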

pitted morningglory = assay: Test D pitted morningglory; format: in vivo, Ipomoea lacunosa; settings: Preemergence, 0 to 100 scale
Text: Seeds, tubers, or plant parts of Alexandergrass (Brachiaria plantaginea), bermuda-grass (Cynodon dactylon), common pursiane (Portulaca oleracea), common ragweed (Ambrosia elatior), common groundsel (Senecio vulgaris), dallisgrass (Paspalum dilatatum), goosegrass (Eleusine indica), guineagrass (Panicum maximum), itchgrass (Rottboellia exaltata), Johnson grass (Sorghum halepense), large crabgrass (Digitaria sanguinalis), pitted morningglory (Ipomoea lacunosa), purple nutsedge (Cyperus rotundus), sandbur (Cenchrus echinatus), sourgrass (Trichachne insularis), Spanishneedles (Bidens bipinnata), surinam grass (Brachiaria decumbens) and tall mallow (Malva sylvestris) were planted into greenhouse pots of flats containing greenhouse planting medium. Plant species were grown in separate pots or individual compartments. Preemergence applications were made within one day of planting the seed or plant part.
Test chemicals were formulated in a non-phytotoxic solvent mixture which included a surfactant and applied preemergence to the surface of the pot containing seeds in a sandy loam soil. Untreated control pots and treated pots were placed in the greenhouse for growth and visually evaluated for injury 14 to 21 days after herbicide application. […] A dash (−) response means no test result.

tall mallow = assay: Test D tall mallow; format: in vivo, Malva sylvestris; settings: Preemergence, 0 to 100 scale
How it was run: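 Herbicide screen in the greenhouse. A non-phytotoxic solvent mixture with surfactant carried the test chemical; in pre-emergence tests it went onto the soil of pots seeded no more than a day earlier. Injury was scored by eye 14 to 21 days after application, 0 to 100.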

[1] = Postemergence, Rate 62 g/ha, scale 0 to 10, 0 is no effect, 10 is complete control
[2] = Postemergence, Rate 250 g/ha, scale 0 to 10, 0 no effect, 10 complete control
[3] = Preemergence, Rate 62 g/ha, scale 0 to 10, 0 is no effect, 10 is complete control
[4] = Preemergence, Rate 125 g/ha, scale 0 to 10 (0 no effect, 10 complete control)
[5] = Preemergence, Rate 250 g/ha, scale of 0 to 10 where 0 is no effect and 10 is complete control
[6] = Preemergence, Rate 500 g/ha, scale 0 (no effect) to 10 (complete control)
[7] = Rate 125 g/ha, Postemergence, scale 0 to 10, 0 no effect, 10 complete control
[8] = Rate 500 g/ha, Postemergence, 0 to 10 scale (0 no effect, 10 complete control)
[9] = Rate 125 g/ha, Postemergence section (flood test species), scale 0 to 10, 0 no effect, 10 complete control
[10] = Rate 500 g/ha, Postemergence section of Table B, 0 to 10 scale (0 no effect, 10 complete control)
[11] = flood test, listed under Postemergence, Rate 250 g/ha, scale 0 to 10, 0 no effect, 10 complete control
[12] = Rate 32 g/ha, 0 no injury, 100 complete control
[13] = Rate 64 g/ha, 0 no injury, 100 complete control
[14] = Rate 125 g/ha, 0 no injury, 100 complete control

SMILES | Corn plant response rating (corn; [1]) | Corn plant response rating (corn; [2]) | Plant response rating, Corn (corn; [3]) | Plant response rating, Corn (corn; [4]) | Plant response rating, Corn (corn; [5]) | Corn plant response rating (corn; [6]) | Corn plant response rating (corn; [7]) | Corn plant response rating (corn; [8]) | Rape plant response rating (rape; [1]) | Rape plant response rating (rape; [2]) | Plant response rating, Rape (rape; [3]) | Plant response rating, Rape (rape; [4]) | Plant response rating, Rape (rape; [5]) | Rape plant response rating (rape; [6]) | Rape plant response rating (rape; [7]) | Rape plant response rating (rape; [8]) | Sugarbeets plant response rating (sugar beet; [1]) | Sugarbeets plant response rating (sugar beet; [2]) | Plant response rating, Sugarbeets (sugar beet; [3]) | Plant response rating, Sugarbeets (sugar beet; [4]) | other results
Cc1ccccc1-n1c(=O)on(C(=O)N(c2ccccc2)C(C)C)c1=O [Compound 36] | 0 | 0 | 0 | 0 | 0 | 0 | 0 | 0 | 0 | 0 | 0 | 0 | 0 | 3 | 0 | 0 | 0 | 0 | 0 | 0 | Plant response rating, Sugarbeets (sugar beet; [5]): 0; Sugarbeets plant response rating (sugar beet; [6]): 5; Sugarbeets plant response rating (sugar beet; [7]): 0; Ducksalad plant response rating (duck salad; [1]): 0; Ducksalad plant response rating (duck salad; [9]): 0; Ducksalad plant response rating (duck salad; Rate 250 g/ha, headed Pre-emergence (flood test species), scale 0 to 10 (0 no effect, 10 complete control)): 0; Ducksalad plant response rating (duck salad; [10]): 0; Plant response rating, Ducksalad (duck salad; Rate 500 g/ha, headed Pre-emergence (flood test species), scale 0 to 10 (0 no effect, 10 complete control)): 0; Ducksalad plant response rating (duck salad; Rate 1000 g/ha, Pre-emergence (as headed), scale 0 to 10): 0; Ducksalad plant response rating (duck salad; Rate 2000 g/ha, Pre-emergence (as headed), scale 0 to 10): 0; Ducksalad plant response rating (duck salad; [11]): 0; Plant response rating, P. morninglory (pitted morningglory; Rate 500 g/ha): 0; Plant response rating, Tall Mallow (tall mallow; Rate 500 g/ha): 0
CCc1ccccc1-n1c(=O)on(C(=O)N(c2ccc(F)cc2)C(C)C)c1=O [Compound 34] | 0 | 0 | 0 | 0 | 0 | 0 | 0 | 0 | 0 | 0 | 0 | 0 | 0 | 3 | 0 | 0 | 0 | 0 | 0 | 0 | Plant response rating, Sugarbeets (sugar beet; [5]): 0; Sugarbeets plant response rating (sugar beet; [6]): 4; Sugarbeets plant response rating (sugar beet; [7]): 0; Ducksalad plant response rating (duck salad; [1]): 0; Ducksalad plant response rating (duck salad; [9]): 0; Ducksalad plant response rating (duck salad; [10]): 0; Ducksalad plant response rating (duck salad; [11]): 0; Plant response rating, P. morninglory (pitted morningglory; [12]): 0; Plant response rating, P. morninglory (pitted morningglory; [13]): 0; Plant response rating, P. morninglory (pitted morningglory; [14]): 0; Plant response rating, P. morninglory (pitted morningglory; Rate 250 g/ha): 0; Plant response rating, Tall Mallow (tall mallow; [12]): 0; Tall Mallow plant response rating (tall mallow; [13]): 0; Tall Mallow plant response rating (tall mallow; [14]): 0; Plant response rating, Tall Mallow (tall mallow; Rate 250 g/ha): 0
